Eight compounds from patent EP4574818A1, “ONIUM SALT OF NITROGEN-CONTAINING HETEROARYL COMPOUND AND PEST CONTROL AGENT” (priority 2022, dated 2024) can be followed below.

Molecules are shown by their SMILES.

Common to all, as to assay type: in vivo
The test system of one data set is Mythimna separata. Description: Efficacy test against Mythimna separata (treated artificial feed). The note with it: 1 µl of emulsion (I) (5% by mass active ingredient) mixed with 0.8 g artificial feed; second-instar larvae; 25°C; after five days. Here is the method: (§1) 5 parts by mass of a compound of the present invention, 93.6 parts by mass of dimethylformamide, and 1.4 parts by mass of polyoxyethylene alkyl aryl ether were mixed and dissolved to obtain an emulsion (I) containing 5% by mass of the active ingredient.
0.8 g of commercially-available artificial feed (Insect LFS, manufactured by Nosan Corporation) and 1 µl of the emulsion (I) were mixed well, and then 0.2 g of the mixture per treated area was packed into plastic test containers (each having a capacity of 1.4 ml) as test feeds.
Two second-instar larvae of Mythimna separata were left per treated area, and then the test containers were sealed with plastic covers. The test containers were placed in a thermostatic chamber at 25°C, and, after five days had passed therefrom, the mortality and the feed intake were measured. The test was repeated twice.
In addition, the test was carried out under the same conditions as described above, except that the emulsion (II) was used instead of the emulsion (I), and evaluated as a solvent control area.

Another data set deals with Spodoptera litura. The experiment in a line: Efficacy test against Spodoptera litura (cabbage leaf immersion). The settings on record: 144 h, 125 ppm by mass, cabbage leaf immersed 30 seconds, second-instar larvae, 25°C, humidity 60%, after six days, read-out: mortality of Spodoptera litura. Here is the method:
A cabbage leaf was immersed in the diluted solution for 30 seconds. The cabbage leaf was air-dried and then put in a petri dish, followed by leaving five second-instar larvae of Spodoptera litura therein. The petri dish was placed in a thermostatic chamber at a temperature of 25°C and a humidity of 60%. After six days had passed from leaving the larvae, life or death was assessed and the mortality was calculated. The test was repeated twice.

A further data set concerns Plutella xylostella. Description: Efficacy test against Plutella xylostella (cabbage leaf immersion). The note with it: 72 h; 125 ppm by mass; cabbage leaf immersed 30 seconds; second-instar larvae of Plutella xylostella; 25°C, humidity 60%; after three days; read-out: mortality. The procedure: The emulsion (II) was diluted with water at the same dilution ratio as the diluted solution (I), thereby obtaining a diluted solution (II). A cabbage leaf was immersed in each of the diluted solutions for 30 seconds. Each cabbage leaf after immersion was air-dried and then put in a petri dish, followed by leaving five second-instar larvae of Plutella xylostella therein. The petri dishes were placed in a thermostatic chamber at a temperature of 25°C and a humidity of 60%. After three days had passed from leaving the larvae, life or death was assessed and the mortality was calculated. The test was repeated twice.

The subject of the next data set is Phyllotreta striolata. Description: Efficacy test against Phyllotreta striolata (sprayed bok-choy seedling). The note with it: 168 h, 125 ppm by mass, sprayed to bok-choy seedling, adults, 25°C, humidity 65%, after seven days, read-out: mortality against the adults of Phyllotreta striolata. Here is the method: as §1
The emulsion (I) was diluted with water such that the concentration of the compound of the present invention became 125 ppm by mass. The diluted solution was sprayed to a bok-choy seedling (at the 7th leafe stage) planted in a 3-sun pot. After air-dried, the bok-choy seedling was placed in a plastic cup, and ten adults of Phyllotreta striolata were left therein. The plastic cup was placed in a thermostatic chamber at a temperature of 25°C and a humidity of 65%. After seven days had passed from leaving the adults, life or death was assessed and the mortality was calculated. The test was repeated twice.

In the next data set the test system is Ctenocephalides felis. The experiment in a line: Efficacy test against Ctenocephalides felis (thin film in glass vial). The note with it: 96 h, 100 µL of 16 ppm by mass isopropanol solution dried as thin film in glass vial, adults, 25°C, after four days. Here is the method: The compound of the present invention was dissolved in isopropanol to prepare a drug solution having a concentration of 16 ppm by mass. 100 µL of the drug solution was coated on the inner surface of the bottom of a glass vial container (φ […]), and then isopropanol was vaporized by air-drying to form a thin film of the compound of the present invention. In the vial container, four adults (a mixture of males and females) of cat flea (Ctenocephalides felis) were left. The lid was put on the vial container, and the vial container was placed in a thermostatic chamber at 25°C. After four days had passed from leaving the adults, life or death of Ctenocephalides felis was assessed and the mortality was calculated.

Data set [1] deals with Haemophysalis longicornis. The experiment in a line: Efficacy test against Haemophysalis longicornis (thin film in glass test tube). The settings on record: 100 µL of 16 ppm by mass isopropanol solution dried as thin film in glass test tube; nymphs; 25°C; after four days; 5760 min. Here is the method: The compound of the present invention was dissolved in isopropanol to prepare a drug solution having a concentration of 16 ppm by mass. 100 µL of the drug solution was coated on the inner surface of the bottom of a glass test tube (φ 12 mm), and then isopropanol was vaporized by air-drying to form a thin film of the compound of the present invention. In the test tube, four nymphs of Haemophysalis longicornis were left. The lid was put on the test tube, and the test tube was placed in a thermostatic chamber at 25°C. After four days had passed from leaving the nymphs, life or death of Haemophysalis longicornis was assessed and the mortality was calculated.

Usually mortality stands for the share of the test organisms that died. For `O=C([N-][n+]1cccc(F)c1)c1cc(Cl)nc(Oc2ccc(OC(F)(F)F)cc2)c1` [Compound 1], the “mortality of Mythimna separata or feed intake relative to the feed intake at the solvent control area” value in the data set on Mythimna separata was 100% mortality of Mythimna separata or 10% or less of the feed intake. Moreover, the mortality at 125 ppm in the data set on Spodoptera litura, in the data set with Plutella xylostella and in the data set on Phyllotreta striolata was at least 80% in each case. Further, in the data set with Ctenocephalides felis, the mortality at 16 ppm is at least 80%.

As to `O=C([N-][n+]1ccccc1)c1cc(Cl)nc(Oc2ccc(OC(F)(F)C(F)(F)F)cc2)c1` [Compound 3], in the data set with Mythimna separata, the “mortality of Mythimna separata or feed intake relative to the feed intake at the solvent control area” value is listed as 100% mortality of Mythimna separata or 10% or less of the feed intake. The mortality at 125 ppm in the data set on Spodoptera litura, in the data set on Plutella xylostella and in the data set on Phyllotreta striolata was at least 80% each time.

As for `O=C([N-][n+]1cccc(F)c1)c1cc(Cl)nc(Oc2ccc(OC(F)(F)C(F)(F)F)cc2)c1` [Compound 7], the mortality at 125 ppm with Spodoptera litura and with Plutella xylostella was at least 80% in each case. In the data set on Ctenocephalides felis, this compound displayed a mortality at 16 ppm of at least 80%.

`CCn1c[n+]([N-]C(=O)c2cc(Cl)nc(Oc3ccc(OC(F)(F)C(F)(F)F)cc3)c2)cn1` [Compound 10]: the mortality at 125 ppm in the data set on Spodoptera litura, in the data set with Plutella xylostella and with Phyllotreta striolata was at least 80% throughout. The same compound registered a mortality at 16 ppm in the data set with Ctenocephalides felis of at least 80%.

`O=C([N-][n+]1ccccc1)c1cc(Cl)nc(Oc2ccc(OC(F)(F)F)cc2)c1` [Compound 175, (2-chloro-6-(4-(trifluoromethoxy)phenoxy)isonicotinoyl)(pyridin-1-ium-1-yl)amide]: in the data set with Mythimna separata, the “mortality of Mythimna separata or feed intake relative to the feed intake at the solvent control area” value is 100% mortality of Mythimna separata or 10% or less of the feed intake. Moreover, the mortality at 125 ppm in the data set with Spodoptera litura, in the data set on Plutella xylostella and with Phyllotreta striolata was at least 80% in each case. The same compound showed a mortality at 16 ppm in the data set on Ctenocephalides felis of at least 80%. Besides, the “mortality against Haemophysalis longicornis” value in data set [1] was at least 80%.

Turning to `O=C([N-][n+]1ccccc1)c1cc(Cl)nc(Oc2ccc(C3CC3(Cl)Cl)cc2)c1` (stereo not drawn) [Compound 211], the “mortality of Mythimna separata or feed intake relative to the feed intake at the solvent control area” value with Mythimna separata was 100% mortality of Mythimna separata or 10% or less of the feed intake. For the same compound, the mortality at 125 ppm in the data set on Phyllotreta striolata was at least 80%.

For `CCn1c[n+]([N-]C(=O)c2cc(I)nc(Oc3ccc(OC(F)(F)C(F)(F)F)cc3)c2)cn1` [Compound 218], the mortality at 125 ppm in the data set on Spodoptera litura, in the data set on Plutella xylostella and in the data set with Phyllotreta striolata was at least 80% each time.

With `O=C([N-][n+]1ccccc1)c1cc(I)nc(Oc2ccc(OC(F)(F)C(F)(F)F)cc2)c1` [Compound 219, (2-iodo-6-(4-(perfluoroethoxy)phenoxy)isonicotinoyl)(pyridin-1-ium-1-yl)amide], the mortality at 125 ppm in the data set with Spodoptera litura, with Plutella xylostella and with Phyllotreta striolata was at least 80% throughout.
